≈ marks a conversion by molar mass, not a printed value.
Experiments:
Format in all cases: functional
Staphylococcus aureus [1] = experiment: Antibacterial activity against methicillin-resistant Staphylococcus aureus ATCC 43300
Enterococcus faecium = experiment: Antibacterial activity against Enterococcus faecium NCTC 7171
Pseudomonas aeruginosa = experiment: Antibacterial activity against Pseudomonas aeruginosa HER 1018
Klebsiella pneumoniae = experiment: Antibacterial activity against Klebsiella pneumoniae BAA 2146
Acinetobacter baumannii = experiment: Antibacterial activity against Acinetobacter baumannii 2208 ATCC 19606
Escherichia coli [2] = experiment: Antibacterial activity against Escherichia coli MG1655
Enterobacter cloacae = experiment: Antibacterial activity against Enterobacter cloacae ATCC 13047
Staphylococcus aureus [3] = experiment: Antibacterial activity against Staphylococcus aureus ATCC 29213
Staphylococcus aureus [4] = experiment: Antibacterial activity against Staphylococcus aureus UCN14
Staphylococcus aureus [5] = experiment: Antibacterial activity against Staphylococcus aureus UCN17
Staphylococcus aureus [6] = experiment: Antibacterial activity against Staphylococcus aureus UCN18
Escherichia coli [7] = experiment: Antibacterial activity against Escherichia coli DK
Escherichia coli [8] = experiment: Antibacterial activity against Escherichia coli DK3535
Escherichia coli [9] = experiment: Antibacterial activity against Escherichia coli DK2058G
Escherichia coli [10] = experiment: Antibacterial activity against Escherichia coli SQ171
Escherichia coli [11] = experiment: Antibacterial activity against Escherichia coli SQ171 2058G
Staphylococcus aureus [12] = experiment: Antibacterial activity against Staphylococcus aureus ATCC 33591
Streptococcus pneumoniae [13] = experiment: Antibacterial activity against Streptococcus pneumoniae 655 mef A
Streptococcus pneumoniae [14] = experiment: Antibacterial activity against Streptococcus pneumoniae 2196 erm B
Streptococcus pneumoniae [15] = experiment: Antibacterial activity against Streptococcus pneumoniae 2634 mef A 2059G

MIC (Staphylococcus aureus [3]) [µM]	MIC (Staphylococcus aureus [4]) [µM]	MIC (Staphylococcus aureus [5]) [µM]	MIC (Staphylococcus aureus [6]) [µM]	MIC (Escherichia coli [7]) [µM]	MIC (Escherichia coli [8]) [µM]	MIC (Escherichia coli [9]) [µM]	MIC (Escherichia coli [10]) [µM]	MIC (Escherichia coli [11]) [µM]	MIC (Staphylococcus aureus [12]) [µM]	MIC (Streptococcus pneumoniae [13]) [µM]	MIC (Streptococcus pneumoniae [14]) [µM]	MIC (Streptococcus pneumoniae [15]) [µM]	SMILES	MIC (Staphylococcus aureus [1]) [µM]	MIC (Enterococcus faecium) [µM]	MIC (Pseudomonas aeruginosa) [µM]	MIC (Klebsiella pneumoniae) [µM]	MIC (Acinetobacter baumannii) [µM]	MIC (Escherichia coli [2]) [µM]	MIC (Enterobacter cloacae) [µM]
< 0.075	19 (≈ 15.8 µg/mL)	9.6 (≈ 8.01 µg/mL)	9.6 (≈ 8.01 µg/mL)	2.4 (≈ 2 µg/mL)	2.4 (≈ 2 µg/mL)	2.4 (≈ 2 µg/mL)	> 38	> 38	–	–	–	–	CC[C@H]1OC(=O)[C@@](C)(F)C(=O)[C@H](C)[C@@H](O[C@@H]2O[C@H](C)C[C@H](N(C)C)[C@H]2O)[C@](C)(OC)C[C@@H](C)C(=O)[C@H](C)C2N(C/C=C/Cn3cc(-c4cccs4)nn3)C(=O)O[C@@]21C (single isomer, unassigned)	–	–	–	–	–	–	–
–	> 150	> 150	> 150	–	4.8 (≈ 3.99 µg/mL)	4.8 (≈ 3.99 µg/mL)	–	–	> 150	> 4.8	> 4.8	> 4.8	CC[C@H]1OC(=O)[C@@](C)(F)C(=O)[C@H](C)[C@@H](OC[C@@H](O)CN2CCOCC2)[C@](C)(OC)C[C@@H](C)C(=O)[C@H](C)C2N(CCCCn3cc(-c4cccc(N)c4)nn3)C(=O)O[C@@]21C (single isomer, unassigned)	–	–	–	–	–	–	–
3.9 (≈ 3.97 µg/mL)	> 130	> 130	> 130	3.9 (≈ 3.97 µg/mL)	7.9 (≈ 8.04 µg/mL)	7.9 (≈ 8.04 µg/mL)	> 31	> 31	–	–	–	–	CC[C@H]1OC(=O)[C@@](C)(F)C(=O)[C@H](C)[C@@H](O[C@@H]2O[C@H](C)C[C@H](N(C)CCCn3cc(-c4cccnc4)nn3)[C@H]2O)[C@](C)(OC)C[C@@H](C)C(=O)[C@H](C)C2N(CCCCn3cc(-c4cccc(N)c4)nn3)C(=O)O[C@@]21C (single isomer, unassigned)	–	–	–	–	–	–	–
–	> 160	> 160	> 160	–	> 41	> 41	–	–	> 160	2.5 (≈ 1.97 µg/mL)	> 5.1	> 5.1	CC[C@H]1OC(=O)[C@@](C)(F)C(=O)[C@H](C)[C@@H](OC[C@@H](O)CN(C)C)[C@](C)(OC)C[C@@H](C)C(=O)[C@H](C)C2N(CCCCn3cc(-c4cccc(N)c4)nn3)C(=O)O[C@@]21C (single isomer, unassigned)	–	–	–	–	–	–	–
–	> 150	> 150	> 150	–	9.6 (≈ 7.96 µg/mL)	4.8 (≈ 3.98 µg/mL)	–	–	> 150	> 4.8	> 4.8	> 4.8	CC[C@H]1OC(=O)[C@@](C)(F)C(=O)[C@H](C)[C@@H](OC[C@@H](O)CN2CCCCC2)[C@](C)(OC)C[C@@H](C)C(=O)[C@H](C)C2N(CCCCn3cc(-c4cccc(N)c4)nn3)C(=O)O[C@@]21C (single isomer, unassigned)	–	–	–	–	–	–	–
1.9 (≈ 1.96 µg/mL)	> 120	> 120	> 120	7.8 (≈ 8.04 µg/mL)	7.8 (≈ 8.04 µg/mL)	7.8 (≈ 8.04 µg/mL)	> 31	> 31	–	–	–	–	CC[C@H]1OC(=O)[C@@](C)(F)C(=O)[C@H](C)[C@@H](O[C@@H]2O[C@H](C)C[C@H](N(C)CCCCn3cc(-c4cccnc4)nn3)[C@H]2O)[C@](C)(OC)C[C@@H](C)C(=O)[C@H](C)C2N(CCCCn3cc(-c4cccc(N)c4)nn3)C(=O)O[C@@]21C (single isomer, unassigned)	–	–	–	–	–	–	–
0.96 (≈ 1 µg/mL)	> 120	> 120	> 120	7.7 (≈ 8.05 µg/mL)	3.8 (≈ 3.97 µg/mL)	> 31	> 31	> 31	–	–	–	–	CC[C@H]1OC(=O)[C@@](C)(F)C(=O)[C@H](C)[C@@H](O[C@@H]2O[C@H](C)C[C@H](N(C)CCCCn3cc(-c4cccc(N)c4)nn3)[C@H]2O)[C@](C)(OC)C[C@@H](C)C(=O)[C@H](C)C2N(CCCCn3cc(-c4cccc(N)c4)nn3)C(=O)O[C@@]21C (single isomer, unassigned)	–	–	–	–	–	–	–
0.49 (≈ 0.498 µg/mL)	> 130	> 130	> 130	> 31	> 31	> 31	> 31	> 31	–	–	–	–	CC[C@H]1OC(=O)[C@@](C)(F)C(=O)[C@H](C)[C@@H](O[C@@H]2O[C@H](C)C[C@H](N(C)CCn3cc(-c4cccc(N)c4)nn3)[C@H]2O)[C@](C)(OC)C[C@@H](C)C(=O)[C@H](C)C2N(CCCCn3cc(-c4cccc(N)c4)nn3)C(=O)O[C@@]21C (single isomer, unassigned)	–	–	–	–	–	–	–
0.25 (≈ 0.251 µg/mL)	> 130	> 130	> 130	> 32	> 32	> 32	> 32	> 32	–	–	–	–	CC[C@H]1OC(=O)[C@@](C)(F)C(=O)[C@H](C)[C@@H](O[C@@H]2O[C@H](C)C[C@H](N(C)CCn3cc(-c4cccnc4)nn3)[C@H]2O)[C@](C)(OC)C[C@@H](C)C(=O)[C@H](C)C2N(CCCCn3cc(-c4cccc(N)c4)nn3)C(=O)O[C@@]21C (single isomer, unassigned)	–	–	–	–	–	–	–
< 0.074	2.4 (≈ 2.02 µg/mL)	0.15 (≈ 0.126 µg/mL)	< 0.074	2.4 (≈ 2.02 µg/mL)	2 (≈ 1.69 µg/mL)	2.4 (≈ 2.02 µg/mL)	> 38	> 38	–	–	–	–	CC[C@H]1OC(=O)[C@@](C)(F)C(=O)[C@H](C)[C@@H](O[C@@H]2O[C@H](C)C[C@H](N(C)C)[C@H]2O)[C@](C)(OC)C[C@@H](C)C(=O)[C@H](C)C2N(C/C=C/Cn3cc(-c4cccc(N)c4)nn3)C(=O)O[C@@]21C (single isomer, unassigned)	–	–	–	–	–	–	–
1.1 (≈ 0.958 µg/mL)	> 150	150 (≈ 131 µg/mL)	150 (≈ 131 µg/mL)	2.3 (≈ 2 µg/mL)	4.6 (≈ 4.01 µg/mL)	2.3 (≈ 2 µg/mL)	> 37	> 37	–	–	–	–	C=CCN(C)[C@H]1C[C@@H](C)O[C@@H](O[C@@H]2[C@@H](C)C(=O)[C@](C)(F)C(=O)O[C@H](CC)[C@@]3(C)OC(=O)N(CCCCn4cc(-c5cccc(N)c5)nn4)C3[C@@H](C)C(=O)[C@H](C)C[C@@]2(C)OC)[C@@H]1O (single isomer, unassigned)	–	–	–	–	–	–	–

Further lines, the compound ahead of its results:

SMILES	MIC (Staphylococcus aureus [3]) [µM]	MIC (Staphylococcus aureus [4]) [µM]	MIC (Staphylococcus aureus [5]) [µM]	MIC (Staphylococcus aureus [6]) [µM]	MIC (Escherichia coli [7]) [µM]	MIC (Escherichia coli [8]) [µM]	MIC (Escherichia coli [9]) [µM]	MIC (Escherichia coli [10]) [µM]	MIC (Escherichia coli [11]) [µM]	MIC (Staphylococcus aureus [12]) [µM]	MIC (Streptococcus pneumoniae [13]) [µM]	MIC (Streptococcus pneumoniae [14]) [µM]	MIC (Streptococcus pneumoniae [15]) [µM]	MIC (Staphylococcus aureus [1]) [µM]	MIC (Enterococcus faecium) [µM]	MIC (Pseudomonas aeruginosa) [µM]	MIC (Klebsiella pneumoniae) [µM]	MIC (Acinetobacter baumannii) [µM]	MIC (Escherichia coli [2]) [µM]	MIC (Enterobacter cloacae) [µM]
[N-]=[N+]=NC[C@@H]1CN(c2ccc(N3CCOCC3)c(F)c2)C(=O)O1	–	–	–	–	–	–	–	–	–	–	–	–	–	> 200	> 200	> 200	> 200	> 200	> 200	> 200
[N-]=[N+]=NC[C@H]1CN(c2ccc(N3CCOCC3)c(F)c2)C(=O)O1	–	–	–	–	–	–	–	–	–	–	–	–	–	> 200	> 200	> 200	> 200	> 200	> 200	> 200
CC[C@H]1OC(=O)[C@@](C)(F)C(=O)[C@H](C)[C@@H](O[C@@H]2O[C@H](C)C[C@H](N(C)CCc3cn(C[C@@H]4CN(c5ccc(N6CCOCC6)c(F)c5)C(=O)O4)nn3)[C@H]2O)[C@](C)(OC)C[C@@H](C)C(=O)[C@H](C)C2N(CCCCn3cc(-c4cccc(N)c4)nn3)C(=O)O[C@@]21C (single isomer, unassigned)	–	–	–	–	–	–	–	–	–	–	–	–	–	200 (≈ 241 µg/mL)	> 200	> 200	> 200	> 200	> 200	> 200
CC[C@H]1OC(=O)[C@@](C)(F)C(=O)[C@H](C)[C@@H](O[C@@H]2O[C@H](C)C[C@H](N(C)C)[C@H]2O)[C@](C)(OC)C[C@@H](C)C(=O)[C@H](C)C2N(C/C=C/Cn3cc(-c4cccc(O)c4)nn3)C(=O)O[C@@]21C (single isomer, unassigned)	< 0.074	9.5 (≈ 8.02 µg/mL)	9.5 (≈ 8.02 µg/mL)	4.7 (≈ 3.97 µg/mL)	2.4 (≈ 2.03 µg/mL)	2.4 (≈ 2.03 µg/mL)	2.4 (≈ 2.03 µg/mL)	> 38	> 38	–	–	–	–	–	–	–	–	–	–	–
CC[C@H]1OC(=O)[C@@](C)(F)C(=O)[C@H](C)[C@@H](O[C@@H]2O[C@H](C)C[C@H](N(C)CCc3cn(C[C@H]4CN(c5ccc(N6CCOCC6)c(F)c5)C(=O)O4)nn3)[C@H]2O)[C@](C)(OC)C[C@@H](C)C(=O)[C@H](C)C2N(CCCCn3cc(-c4cccc(N)c4)nn3)C(=O)O[C@@]21C (single isomer, unassigned)	–	–	–	–	–	–	–	–	–	–	–	–	–	0.8 (≈ 0.964 µg/mL)	0.2 (≈ 0.241 µg/mL)	> 200	> 200	> 200	> 200	> 200
C=CCN(C)[C@H]1C[C@@H](C)O[C@@H](O[C@@H]2[C@@H](C)C(=O)[C@](C)(F)C(=O)O[C@H](CC)[C@@]3(C)OC(=O)N(CCCCN=[N+]=[N-])C3[C@@H](C)C(=O)[C@H](C)C[C@@]2(C)OC)[C@@H]1O (single isomer, unassigned)	0.66 (≈ 0.498 µg/mL)	> 170	> 170	> 170	0.66 (≈ 0.498 µg/mL)	11 (≈ 8.29 µg/mL)	5.3 (≈ 4 µg/mL)	> 42	> 42	–	–	–	–	–	–	–	–	–	–	–
CC[C@H]1OC(=O)[C@@](C)(F)C(=O)[C@H](C)[C@@H](O[C@@H]2O[C@H](C)C[C@H](N(C)CCCn3cc(-c4cccc(N)c4)nn3)[C@H]2O)[C@](C)(OC)C[C@@H](C)C(=O)[C@H](C)C2N(CCCCn3cc(-c4cccc(N)c4)nn3)C(=O)O[C@@]21C (single isomer, unassigned)	0.97 (≈ 1 µg/mL)	> 120	> 120	> 120	3.9 (≈ 4.02 µg/mL)	3.9 (≈ 4.02 µg/mL)	16 (≈ 16.5 µg/mL)	> 31	> 31	–	–	–	–	–	–	–	–	–	–	–
CC(=O)NC[C@H]1CN(c2ccc(N3CCOCC3)c(F)c2)C(=O)O1 [LINEZOLID]	–	–	–	–	–	–	–	–	–	–	–	–	–	6 (≈ 2.02 µg/mL)	6 (≈ 2.02 µg/mL)	> 200	> 200	> 200	> 200	> 200
